11 compounds from US5686424A, “2-oxoethyl derivatives as immunosuppressants” (Miles Inc., priority 1995, dated 1997) can be followed below.

Broadly, the IC50 is the concentration needed to halve the response being measured.

Assay [1] has as its target FKBP (Homo sapiens, UniProt P62942). The experiment in a line: PPIase Inhibition Assay. Format: biochemical. To be noted: concentration of inhibitor required for 50% inhibition of enzyme activity; FKBP, substrate Succinyl-Ala-Phe-Pro-Phe-para-nitroanilide; TABLE I. A digest of the protocol:
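Chymotrypsin-coupled isomerization of Succinyl-Ala-Phe-Pro-Phe-para-nitroanilide by FKBP in ice-cold 25 mM HEPES pH 7.8, 100 mM NaCl, compound in DMSO. A390 followed 90 sec; first-order rate constants give % activity remaining after subtracting uncatalyzed rate; IC50 by linear regression of V-/V+ versus concentration.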

Assay [2] concerns human T-cells. As to the kind of experiment: Suppression of Human T-Cell Proliferation Assay (PHA-stimulated, [3H]-thymidine incorporation). Format: cell-based. To be noted: concentration inhibiting [3H]-thymidine incorporation of PHA-stimulated T-cells by 50%, 72 hours; TABLE 2; read-out: IC50. In short, it runs like this:
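SRBC-rosette-purified human peripheral T-cells stimulated with PHA-M (40 μg/ml stock) and compound dilutions, in duplicate, for 72 h at 37° C. Proliferation measured by [3H]-thymidine incorporation during the final 6 h, read by liquid scintillation counting.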

The test system of assay [3] is NF-AT. The experiment in a line: NF-AT Inhibition Assay Directed β-Galactosidase Expression in FGL-5 cells. Conditions: 50% inhibition of NF-AT directed β-galactosidase activity in FGL-5 cells stimulated with phorbol dibutyrate and ionomycin; TABLE 3. Format: cell-based. In short, it runs like this:
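FGL-5 Jurkat cells (3 million cells/ml) carry NF-AT-site-driven lacZ. They were stimulated with phorbol dibutyrate plus ionomycin and incubated with compound 16-18 h at 37 °C, in duplicate wells with matched ethanol or DMSO vehicle controls. β-Galactosidase was read as fluorescence from 4-methylumbelliferyl-β-D-galactoside cleavage, giving percent inhibition.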

Where a name gives a salt, the structure may show the parent alone. Bounds are passed on as bounds.

Sequence of FKBP (P62942 whole entry): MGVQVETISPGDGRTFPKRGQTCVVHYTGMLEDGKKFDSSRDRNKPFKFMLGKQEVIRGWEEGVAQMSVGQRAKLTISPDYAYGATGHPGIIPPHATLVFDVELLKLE

With `CC[C@H](C)[C@H](NC(=O)[C@@H]1CCCN1CC(=O)c1c(OC)cccc1OC)C(=O)NCc1ccccc1` [Example 112, L-Isoleucine, N-[1-(2-(2,6-Dimethoxyphenyl)-2-Oxoethyl)-L-Prolyl] Benzylamide], the IC50 in assay [1] was less than 5 µM; in assay [2], 7 µM; in assay [3], greater than 15 µM.

As for `CC[C@H](C)[C@H](NC(=O)[C@@H]1CCCN1CC(=O)C1(c2ccc(C)cc2)CCCCC1)C(=O)NCc1ccccc1` [Example 113, L-Isoleucine, N-[1-(2-(1-(4-Methylphenyl)cyclohexyl)-2-Oxoethyl)-L-Prolyl] Benzylamide], the IC50 was less than 5 µM in assay [1], 8 µM in assay [2] and greater than 15 µM in assay [3].

`CC[C@H](C)[C@H](NC(=O)[C@@H]1CCCN1CC(=O)C1(c2ccc(Cl)cc2)CCCCC1)C(=O)NCc1ccccc1` [Example 114, L-Isoleucine, N-[1-(2-(1-(4-Chlorophenyl)cyclohexyl)-2-Oxoethyl)-L-Prolyl] Benzylamide]: the IC50 in assay [1] is less than 5 µM; in assay [2], 7 µM; in assay [3], 10 µM.

On to `CC[C@H](C)[C@H](NC(=O)[C@@H]1CCCN1CC(=O)c1ccc(OC)c(OC)c1OC)C(=O)NCc1ccccc1` [Example 115, L-Isoleucine, N-[1-(2-(2,3,4-Trimethoxyphenyl)-2-Oxoethyl)-L-Prolyl] Benzylamide], for which the values for the IC50 in assay [1], in assay [2] and in assay [3] were greater than 5 µM, 7 µM and greater than 15 µM, respectively.

For the compound `CC[C@H](C)[C@H](NC(=O)[C@@H]1CCCN1CC(=O)C1(c2ccccc2)CCCCC1)C(=O)NCc1ccccc1` [Example 116, L-Isoleucine, N-[1-(2-(1-Phenylcyclohexyl)-2-Oxoethyl)-L-Prolyl] Benzylamide], the IC50 in assay [1] was less than 5 µM; in assay [2], 6 µM; in assay [3] it was 14 µM.

`CC[C@H](C)[C@H](NC(=O)[C@@H]1CCCN1CC(=O)c1cc(OC)c(OC)cc1OC)C(=O)NCc1ccccc1` [Example 117, L-Isoleucine, N-[1-(2-(2,4,5-Trimethoxyphenyl)-2-Oxoethyl)-L-Prolyl] Benzylamide]: the IC50 in assay [1] was less than 5 µM; in assay [2], greater than 15 µM; in assay [3], greater than 15 µM.

On to `COc1cc(C(=O)CN2CCC[C@H]2C(=O)NCc2ccccc2)cc(OC)c1OC` [Example 120, L-Proline, 1-[2-(3,4,5-Trimethoxyphenyl)-2-Oxoethyl] Benzylamide Hydrochloride], for which the results for the IC50 in assay [1], in assay [2] and in assay [3] were greater than 5 µM, 7 µM and greater than 15 µM, respectively.

As for `COc1cc(C(=O)CN2CCC[C@H]2C(=O)NCCc2ccccc2)cc(OC)c1OC` [Example 121, L-Proline, 1-[2-(3,4,5-Trimethoxyphenyl)-2-Oxoethyl] 2-Phenethylamide Hydrochloride], the IC50 in assay [1] was greater than 5 µM; in assay [2], 7 µM; in assay [3], greater than 15 µM.

For `COc1cc(C(=O)CN2CCC[C@H]2C(=O)NCCCc2ccccc2)cc(OC)c1OC` [Example 122, L-Proline, 1-[2-(3,4,5-Trimethoxyphenyl)-2-Oxoethyl] 3-Phenylpropylamide Hydrochloride], the IC50 in assay [1] was greater than 5 µM; in assay [2], 8 µM; in assay [3] it was greater than 15 µM.

On to `COc1cc(C(=O)CN2CCC[C@H]2C(=O)NCCCCc2ccccc2)cc(OC)c1OC` [Example 123, L-Proline, 1-[2-(3,4,5-Trimethoxyphenyl)-2-Oxoethyl] 4-Phenylbutylamide Hydrochloride], for which the IC50 is greater than 5 µM in assay [1], 10 µM in assay [2] and greater than 15 µM in assay [3].

`COc1cc(C(=O)CN2CCC[C@H]2C(=O)NCCc2ccccn2)cc(OC)c1OC` [Example 124, L-Proline, 1-[2-(3,4,5-Trimethoxyphenyl)-2-Oxoethyl] 2-(Pyrid-2-yl)ethylamide Dihydrochloride]: the IC50 in assay [1] was greater than 5 µM; in assay [2] it was greater than 15 µM; in assay [3], greater than 15 µM.
